| SMILES | melting point [°C] |
| --- | --- |
| Cc1nc(-c2ccc(Cl)cc2)c(-c2ccc(Cl)cc2Cl)cc1CNS(=O)(=O)c1ccc(C(F)(F)F)cc1 | 98 |
| Cc1nc(-c2ccc(Cl)cc2)c(-c2ccc(Cl)cc2Cl)cc1CNC(=O)c1cc2ccccc2[nH]1 [Compound 3, N-{[-6-(4-chlorophenyl)-5-(2,4-dichlorophenyl)-2-methylpyridin-3-yl]methyl}-1H-indole-2-carboxamide] | 135.5 |
